Results taken from patent US11780893B2, “Kv1.3 blockers” (Zealand Pharma A/S, priority 2019, dated 2023).
Bridge positions count the residues as written; N and C are the ends. Square brackets hold non-standard residues; d marks the D form. Peptide text beside a SMILES is read from it. Nle = CCCC[C@H](N)C(=O)O

Target: T1, human Kv1.3 voltage-gated K+ channel (Homo sapiens, UniProt P22001)
T1 construct: host or cells: CHO-DUKX
Assay: cell-based
Settings: inhibition of thallium flux, CHO-DUKX cells with human Kv1.3; read-out: IC50

T1 sequence (P22001 whole entry): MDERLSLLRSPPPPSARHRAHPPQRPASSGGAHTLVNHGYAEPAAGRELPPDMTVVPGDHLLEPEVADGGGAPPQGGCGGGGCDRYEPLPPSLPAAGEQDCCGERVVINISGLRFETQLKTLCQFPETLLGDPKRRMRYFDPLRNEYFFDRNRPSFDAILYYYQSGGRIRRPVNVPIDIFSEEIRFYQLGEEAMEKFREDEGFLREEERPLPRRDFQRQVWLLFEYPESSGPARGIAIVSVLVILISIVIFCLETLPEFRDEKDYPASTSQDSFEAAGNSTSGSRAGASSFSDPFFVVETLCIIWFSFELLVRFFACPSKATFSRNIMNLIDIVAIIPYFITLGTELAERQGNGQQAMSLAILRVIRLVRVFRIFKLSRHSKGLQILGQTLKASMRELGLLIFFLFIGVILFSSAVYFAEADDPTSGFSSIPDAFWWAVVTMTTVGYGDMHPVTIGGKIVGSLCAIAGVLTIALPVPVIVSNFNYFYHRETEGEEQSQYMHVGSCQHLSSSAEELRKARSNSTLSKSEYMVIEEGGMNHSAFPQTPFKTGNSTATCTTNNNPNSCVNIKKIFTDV

Row | SMILES | IC50
1 | CCCC[C@H](NC(=O)[C@@H]1CCCN1)C(=O)N[C@@H](CCC(=O)O)C(=O)N[C@@H](CCCC)C(=O)N[C@@H](CCCNC(=N)N)C(=O)N[C@H]1CSSC[C@@H]2NC(=O)[C@H](CCCCN)NC(=O)CNC(=O)[C@H](Cc3ccccc3)NC(=O)[C@H]([C@@H](C)CC)NC(=O)[C@H](CO)NC(=O)CNC(=O)[C@H]([C@@H](C)CC)NC(=O)[C@H](C)NC(=O)[C@H](C)NC(=O)[C@H](CC(C)C)NC(=O)[C@@H]3CSSC[C@@H](C(=O)N[C@@H](Cc4ccc(O)cc4)C(=O)N[C@@H](CCCNC(=N)N)C(=O)O)NC(=O)[C@H](CCCCN)NC(=O)[C@H](CSSC[C@H](NC(=O)[C@H](CCC(=O)O)NC(=O)[C@H](C(C)C)NC(=O)[C@H](CO)NC(=O)[C@H](C)NC(=O)[C@H](CO)NC1=O)C(=O)N[C@@H](CCCCN)C(=O)N[C@@H](CCC(N)=O)C(=O)N[C@@H](CCCCN)C(=O)N3)NC(=O)[C@H](CCCCN)NC(=O)[C@H](CCCCN)NC(=O)[C@H](CC(N)=O)NC(=O)[C@H](CCCC)NC2=O [Compound 120] (H-P[Nle]E[Nle]RCSASVECKQKCLAAIGSIFGKC[Nle]NKKCKCYR-OH; disulfide 6-27, 12-32, 16-34) | 894 pM
2 | CCCC[C@H](NC(=O)[C@@H]1CCCN1)C(=O)N[C@@H](CCC(=O)O)C(=O)N[C@@H](CCCC)C(=O)N[C@@H](CCCNC(=N)N)C(=O)N[C@H]1CSSC[C@@H]2NC(=O)[C@H](CCCCN)NC(=O)CNC(=O)[C@H](Cc3ccccc3)NC(=O)[C@H]([C@@H](C)CC)NC(=O)[C@H](CO)NC(=O)CNC(=O)[C@H]([C@@H](C)CC)NC(=O)[C@H](C)NC(=O)[C@H](C)NC(=O)[C@H](CC(C)C)NC(=O)[C@@H]3CSSC[C@@H](C(=O)N[C@@H](Cc4ccc(O)cc4)C(=O)N4CCC[C@H]4C(=O)N[C@@H](CCCNC(=N)N)C(=O)N[C@@H](Cc4ccccc4)C(=O)N[C@@H](CCC(=O)O)C(=O)O)NC(=O)[C@H](CCCCN)NC(=O)[C@H](CSSC[C@H](NC(=O)[C@H](CCC(=O)O)NC(=O)[C@H](C(C)C)NC(=O)[C@H](CO)NC(=O)[C@H](C)NC(=O)[C@H](CO)NC1=O)C(=O)N[C@@H](CCCCN)C(=O)N[C@@H](CCC(N)=O)C(=O)N[C@@H](CCCCN)C(=O)N3)NC(=O)[C@H](CCCCN)NC(=O)[C@H](CCCCN)NC(=O)[C@H](CC(N)=O)NC(=O)[C@H](CCCC)NC2=O [Compound 128] (H-P[Nle]E[Nle]RCSASVECKQKCLAAIGSIFGKC[Nle]NKKCKCYPRFE-OH; disulfide 6-27, 12-32, 16-34) | 7180 pM
3 | CC[C@H](C)[C@@H]1NC(=O)[C@H](C)NC(=O)[C@H](CC(=O)O)NC(=O)[C@H](CCCCN)NC(=O)[C@@H]2CSSC[C@@H](C(=O)N[C@@H](Cc3ccc(O)cc3)C(=O)N3CCC[C@H]3C(=O)N[C@@H](CCCNC(=N)N)C(=O)O)NC(=O)[C@H](CCCCN)NC(=O)[C@@H]3CSSC[C@H](NC(=O)[C@H](CCC(=O)O)NC(=O)[C@H](C(C)C)NC(=O)[C@H](CO)NC(=O)[C@H](C)NC(=O)[C@H](CO)NC(=O)[C@@H](NC(=O)[C@H](CCCNC(=N)N)NC(=O)[C@H](CCSC)NC(=O)[C@H](CC(=O)O)NC(=O)[C@H](CCSC)NC(=O)[C@@H](N)CC(N)=O)CSSC[C@H](NC(=O)[C@H](CCCCN)NC(=O)CNC(=O)[C@H](Cc4ccccc4)NC(=O)[C@H]([C@@H](C)CC)NC(=O)[C@H](CO)NC(=O)CNC1=O)C(=O)N[C@@H](CCSC)C(=O)N[C@@H](CC(N)=O)C(=O)N[C@@H](CCCCN)C(=O)N[C@@H](CCCCN)C(=O)N3)C(=O)N[C@@H](CCCCN)C(=O)N[C@@H](CCC(N)=O)C(=O)N[C@@H](CCCCN)C(=O)N2 [Compound 10] (H-NMDMRCSASVECKQKCKDAIGSIFGKCMNKKCKCYPR-OH; disulfide 6-27, 12-32, 16-34) | 570 pM
4 | CC[C@H](C)[C@@H]1NC(=O)[C@H](C)NC(=O)[C@H](CCCCN)NC(=O)[C@H](CC(C)C)NC(=O)[C@@H]2CSSC[C@@H](C(=O)N[C@@H](Cc3ccc(O)cc3)C(=O)N3CCC[C@H]3C(=O)N[C@@H](CCCNC(=N)N)C(N)=O)NC(=O)[C@H](CCCCN)NC(=O)[C@@H]3CSSC[C@H](NC(=O)[C@H](CCC(=O)O)NC(=O)[C@H](C(C)C)NC(=O)[C@H](CO)NC(=O)[C@H](C)NC(=O)[C@H](CO)NC(=O)[C@@H](NC(=O)[C@H](CCCNC(=N)N)NC(=O)[C@H](CCSC)NC(=O)[C@H](CC(=O)O)NC(=O)[C@H](CCSC)NC(=O)[C@@H](N)CC(N)=O)CSSC[C@H](NC(=O)[C@H](CCCCN)NC(=O)CNC(=O)[C@H](Cc4ccccc4)NC(=O)[C@H]([C@@H](C)CC)NC(=O)[C@H](CO)NC(=O)CNC1=O)C(=O)N[C@@H](CCSC)C(=O)N[C@@H](CC(N)=O)C(=O)N[C@@H](CCCCN)C(=O)N[C@@H](CCCCN)C(=O)N3)C(=O)N[C@@H](CCCCN)C(=O)N[C@@H](CCC(N)=O)C(=O)N[C@@H](CCCCN)C(=O)N2 [Compound 7] (H-NMDMRCSASVECKQKCLKAIGSIFGKCMNKKCKCYPR-NH2; disulfide 6-27, 12-32, 16-34) | 120 pM
5 | CCCC[C@H](NC(=O)[C@@H]1CCCN1)C(=O)N[C@@H](CCC(=O)O)C(=O)N[C@@H](CCCC)C(=O)N[C@@H](CCCNC(=N)N)C(=O)N[C@H]1CSSC[C@@H]2NC(=O)[C@H](CCCCN)NC(=O)CNC(=O)[C@H](Cc3ccccc3)NC(=O)[C@H]([C@@H](C)CC)NC(=O)[C@H](CO)NC(=O)CNC(=O)[C@H]([C@@H](C)CC)NC(=O)[C@H](C)NC(=O)[C@H](C)NC(=O)[C@H](CC(C)C)NC(=O)[C@@H]3CSSC[C@@H](C(=O)N[C@@H](Cc4ccc(O)cc4)C(=O)N4CCC[C@H]4C(=O)N[C@@H](CCCNC(=N)N)C(=O)N[C@@H](Cc4c[nH]cn4)C(=O)O)NC(=O)[C@H](CCCCN)NC(=O)[C@H](CSSC[C@H](NC(=O)[C@H](CCC(=O)O)NC(=O)[C@H](C(C)C)NC(=O)[C@H](CO)NC(=O)[C@H](C)NC(=O)[C@H](CO)NC1=O)C(=O)N[C@@H](CCCCN)C(=O)N[C@@H](CCC(N)=O)C(=O)N[C@@H](CCCCN)C(=O)N3)NC(=O)[C@H](CCCCN)NC(=O)[C@H](CCCCN)NC(=O)[C@H](CC(N)=O)NC(=O)[C@H](CCCC)NC2=O [Compound 125] (H-P[Nle]E[Nle]RCSASVECKQKCLAAIGSIFGKC[Nle]NKKCKCYPRH-OH; disulfide 6-27, 12-32, 16-34) | 383 pM
6 | CCCC[C@H](NC(=O)[C@H](CC(=O)O)NC(=O)[C@H](CCSC)NC(=O)[C@@H](N)CC(N)=O)C(=O)N[C@@H](CCCNC(=N)N)C(=O)N[C@H]1CSSC[C@@H]2NC(=O)[C@H](CCCCN)NC(=O)CNC(=O)[C@H](Cc3ccccc3)NC(=O)[C@H]([C@@H](C)CC)NC(=O)[C@H](CO)NC(=O)CNC(=O)[C@H]([C@@H](C)CC)NC(=O)[C@H](C)NC(=O)[C@H](CCCCN)NC(=O)[C@H](CC(C)C)NC(=O)[C@@H]3CSSC[C@@H](C(=O)N[C@@H](Cc4ccc(O)cc4)C(=O)N4CCC[C@H]4C(=O)N[C@@H](CCCNC(=N)N)C(N)=O)NC(=O)[C@H](CCCCN)NC(=O)[C@H](CSSC[C@H](NC(=O)[C@H](CCC(=O)O)NC(=O)[C@H](C(C)C)NC(=O)[C@H](CO)NC(=O)[C@H](C)NC(=O)[C@H](CO)NC1=O)C(=O)N[C@@H](CCCCN)C(=O)N[C@@H](CCC(N)=O)C(=O)N[C@@H](CCCCN)C(=O)N3)NC(=O)[C@H](CCCCN)NC(=O)[C@H](CCCCN)NC(=O)[C@H](CC(N)=O)NC(=O)[C@H](CCSC)NC2=O [Compound 15] (H-NMD[Nle]RCSASVECKQKCLKAIGSIFGKCMNKKCKCYPR-NH2; disulfide 6-27, 12-32, 16-34) | 120 pM
7 | CCCC[C@H](NC(=O)[C@@H]1CCCN1)C(=O)N[C@@H](CCC(=O)O)C(=O)N[C@@H](CCCC)C(=O)N[C@@H](CCCNC(=N)N)C(=O)N[C@H]1CSSC[C@@H]2NC(=O)[C@H](CCCCN)NC(=O)CNC(=O)[C@H](Cc3ccccc3)NC(=O)[C@H]([C@@H](C)CC)NC(=O)[C@H](CO)NC(=O)CNC(=O)[C@H]([C@@H](C)CC)NC(=O)[C@H](C)NC(=O)[C@H](C)NC(=O)[C@H](CC(C)C)NC(=O)[C@@H]3CSSC[C@@H](C(=O)N[C@@H](Cc4ccc(O)cc4)C(=O)N4CCC[C@H]4C(=O)N[C@@H](CCCNC(=N)N)C(=O)N[C@@H](Cc4ccc(O)cc4)C(=O)O)NC(=O)[C@H](CCCCN)NC(=O)[C@H](CSSC[C@H](NC(=O)[C@H](CCC(=O)O)NC(=O)[C@H](C(C)C)NC(=O)[C@H](CO)NC(=O)[C@H](C)NC(=O)[C@H](CO)NC1=O)C(=O)N[C@@H](CCCCN)C(=O)N[C@@H](CCC(N)=O)C(=O)N[C@@H](CCCCN)C(=O)N3)NC(=O)[C@H](CCCCN)NC(=O)[C@H](CCCCN)NC(=O)[C@H](CC(N)=O)NC(=O)[C@H](CCCC)NC2=O [Compound 123] (H-P[Nle]E[Nle]RCSASVECKQKCLAAIGSIFGKC[Nle]NKKCKCYPRY-OH; disulfide 6-27, 12-32, 16-34) | 1040 pM
8 | CCCC[C@@H]1NC(=O)[C@@H]2CSSC[C@H](NC(C)=O)C(=O)N[C@@H](CO)C(=O)N[C@@H](C)C(=O)N[C@@H](CO)C(=O)N[C@@H](C(C)C)C(=O)N[C@@H](CCC(=O)O)C(=O)N[C@H]3CSSC[C@H](NC(=O)[C@H](CCCCN)NC(=O)[C@H](CCCCN)NC(=O)[C@H](CC(N)=O)NC1=O)C(=O)N[C@@H](CCCCN)C(=O)N[C@H](C(=O)N[C@@H](Cc1ccc(O)cc1)C(=O)N[C@@H](CO)C(N)=O)CSSC[C@H](NC(=O)[C@H](CCCCN)NC(=O)[C@H](CCC(N)=O)NC(=O)[C@H](CCCCN)NC3=O)C(=O)N[C@@H](CC(C)C)C(=O)N[C@@H](CCCCN)C(=O)N[C@@H](C)C(=O)N[C@@H]([C@@H](C)CC)C(=O)NCC(=O)N[C@@H](CO)C(=O)N[C@@H]([C@@H](C)CC)C(=O)N[C@@H](Cc1ccccc1)C(=O)NCC(=O)N[C@@H](CCCCN)C(=O)N2 [Compound 110] (Ac-CSASVECKQKCLKAIGSIFGKC[Nle]NKKCKCYS-NH2; disulfide 1-22, 7-27, 11-29) | 2300 pM
9 | CCCC[C@@H]1NC(=O)[C@@H]2CSSC[C@H](NC(C)=O)C(=O)N[C@@H](CO)C(=O)N[C@@H](C)C(=O)N[C@@H](CO)C(=O)N[C@@H](C(C)C)C(=O)N[C@@H](CCC(=O)O)C(=O)N[C@H]3CSSC[C@H](NC(=O)[C@H](CCCCN)NC(=O)[C@H](CCCCN)NC(=O)[C@H](CC(N)=O)NC1=O)C(=O)N[C@@H](CCCCN)C(=O)N[C@H](C(=O)N[C@@H](Cc1ccc(O)cc1)C(=O)N1CCC[C@H]1C(=O)N[C@@H](CO)C(N)=O)CSSC[C@H](NC(=O)[C@H](CCCCN)NC(=O)[C@H](CCC(N)=O)NC(=O)[C@H](CCCCN)NC3=O)C(=O)N[C@@H](CC(C)C)C(=O)N[C@@H](CCCCN)C(=O)N[C@@H](C)C(=O)N[C@@H]([C@@H](C)CC)C(=O)NCC(=O)N[C@@H](CO)C(=O)N[C@@H]([C@@H](C)CC)C(=O)N[C@@H](Cc1ccccc1)C(=O)NCC(=O)N[C@@H](CCCCN)C(=O)N2 [Compound 109] (Ac-CSASVECKQKCLKAIGSIFGKC[Nle]NKKCKCYPS-NH2; disulfide 1-22, 7-27, 11-29) | 960 pM
